Source: patent US20230272485A1, “REPLICATION STRESS PATHWAY AGENT COMPOSITIONS AND METHODS FOR TREATING CANCER” (Boundless Bio, Inc., priority 2022, published 2023)
Entries after “also recorded” stand apart in the source; their conditions may differ.

Legend:
[1] = test system: colorectal cancer line COLO320 HSR; assay: COLO320 HSR cells treated with paclitaxel, ecDNA by metaphase FISH and PCR gene panel
[2] = test system: lung cancer cell line (H2170); assay: H2170 cells treated with paclitaxel, ABCB1 transporter amplified ecDNA (FISH, qPCR); type: cell-based
Method: The lung cancer cell line (H2170) was assessed for the presence of oncogene-amplified ecDNA. […] The cell line was treated with paclitaxel and the presence and level of ecDNA was assessed for ABCB1 transporter amplified ecDNA. […] Gene copy number for the ABCB1 transporter was assessed by qPCR.

[3] = test system: gastric cancer CDX model; assay: gastric cancer CDX model, 7-day multi-dosing experiment; type: in vivo, mice
Method: The ecDTx agent was further tested in the gastric cancer CDX model in a 7-day multi-dosing experiment. Mice were treated with vehicle only (PO; QDx 7 days), with infigratinib alone (15 mg/kg PO;QD x 7 days), the ecDTx CHK1 inhibitor (20 mg/kg SC;Q2D x 4 doses) or with a combination of infigratinib and the ecDTx CHK1 inhibitor (same dosing as with individual agents).
Tumor volume at day 6 is shown in the box and whisker graph in FIG. 4B. […] Copy number for MYC and FGFR2 was evaluated in the tumors from the treated mice. […] This increase was abrogated in the presence of the ecDTx agent. MYC and FGFR2 expression was also evaluated in the tumors of the treated mice (FIG. 4D).

[4] = test system: gastric cancer CDX SNU16 mouse model; assay: gastric cancer CDX SNU16 mouse model, tumor growth over 50 days and copy number in tumors; type: in vivo, mice
Method: To assess the effect of an ecDTx agent on gastric cancer and ecDNA development, a gastric cancer CDX SNU16 mouse model was treated with vehicle only, with infigratinib alone (15 mg/kg PO;QD), the ecDTx CHK1 inhibitor (20 mg/kg SQ;Q2D) or with a combination of infigratinib (15 mg/kg PO;QD) and the ecDTx CHK1 inhibitor (20 mg/kg SQ;Q2D). Tumor growth in the animals was monitored over 50 days. […] The effect of the combination was further assessed by evaluating copy number for MYC and FGFR2 in the tumors from the treated mice. […] FGFR2 amplification was abrogated in the presence of the ecDTx agent alone or when used in combination with infigratinib. The presence of the FGRF2 and MYC amplification on ecDNA was validated by FISH (FIG. 3C).

[5] = test system: gastric cancer cell line SNU16; assay: SNU16 cells treated with infigratinib over about 80 days; relative copy number by metaphase DAPI/FISH; type: cell-based
Method: A gastric cancer cell line SNU16 was assessed for the presence of ecDNA using metaphase DAPI/FISH using probes to detect MYC, FGFR2 and EGFR. […] SNU16 cells were then treated with the FGFR inhibitor infigratinib over the course of about 80 days. ecDNA was assessed by metaphase DAPI/FISH and relative copy number for MYC, FGFR2 and EGFR was tracked at day 0 and 5 additional time points.

[6] = test system: Glioblastoma cell line (GBM39); assay: GBM39 cells treated with erlotinib, FISH for MYC amplification; type: cell-based; conditions: erlotinib 1 uM, 4 weeks, vs control cells
Method: Glioblastoma cell line (GBM39) was assessed for ecDNA in untreated samples and cells treated with the EGFR inhibitor erlotinib (1 uM). Cells were treated for 4 weeks and then assessed by FISH for amplification of MYC ecDNA. […] Cells treated with the erlotinib developed brightly staining MYC amplification on ecDNA. Amplification of MYC on ecDNA and on HSR was quantified from the FISH images in control and treated cells.

[7] = tumors from treated mice, 50-day study

SMILES: CC(=O)O[C@H]1C(=O)[C@@]2(C)[C@H]([C@H](OC(=O)c3ccccc3)[C@]3(O)C[C@H](OC(=O)[C@H](O)[C@@H](NC(=O)c4ccccc4)c4ccccc4)C(C)=C1C3(C)C)[C@]1(OC(C)=O)CO[C@@H]1C[C@@H]2O [paclitaxel]
- amplification of various genes ([1]; PCR with a panel of genes, paclitaxel-treated cells): highest amount of amplification was seen with ABCB1
- copy number of ecDNA harboring the ABCB1 drug efflux pump ([1]; paclitaxel resistant cells, metaphase FISH): high copy number
- copy number of the ABCB1 transporter amplified ecDNA ([2]; FISH, vs untreated controls): marked increase
- gene copy number for the ABCB1 transporter ([2]; qPCR, vs untreated control): dramatically higher; also recorded: significant increase

SMILES: CCN1CCN(c2ccc(Nc3cc(N(C)C(=O)Nc4c(Cl)c(OC)cc(OC)c4Cl)ncn3)cc2)CC1 [infigratinib]
- FGFR2 expression in the tumors [3]: markedly increased
- MYC expression in the tumors [3]: similar
- copy number of FGFR2 in the tumors [3]: dramatically higher than the other groups
- copy number of MYC in the tumors [3]: relatively similar
- tumor growth ([4]; compared to vehicle, over 50 days, infigratinib 15 mg/kg PO QD, ecDTx CHK1 inhibitor 20 mg/kg SQ Q2D): decreased tumor growth
- trend at the later time points (resistance) ([4]; later time points of 50 days, infigratinib 15 mg/kg PO QD): suggested resistance was beginning to develop
- copy number of FGFR2 in the tumors [4, 7]: dramatically higher than the other groups
- copy number of MYC in the tumors [4, 7]: relatively similar
- copy number of FGFR2 ([5]; after about 10 days of treatment): reduced dramatically
- copy number of EGFR ([5]; treatment over about 80 days): rapidly increased
- copy number of MYC ([5]; treatment over about 80 days): rapidly increased

SMILES: C#Cc1cccc(Nc2ncnc3cc(OCCOC)c(OCCOC)cc23)c1 [erlotinib]
- MYC amplification on HSR [6]: did not show any significant difference
- MYC amplification on ecDNA [6]: dramatic increase; also recorded: significant increase
